# Assay results published in patent US20230146795A1, “ENHANCEMENT OF ANTI-TUMOR ACTIVITY OF SHP2 INHIBITOR PYRIMIDINONE IN COMBINATION WITH NOVEL CANCER MEDICINES IN CANCERS” (TAIHO PHARMACEUTICAL CO., LTD., priority 2020, published 2023).
# Legend:
# [1] = system: human colorectal cancer cell line SW837; experiment: Antitumor effect on SW837 tumor subcutaneously implanted to SCID-Beige mouse; format: in vivo; conditions: Compound 1 alone, 25 mg/kg/day orally once a day for 28 days; day of assessment
# Procedure: The day at which the grouping was carried out was defined as Day 0.
# [2] = system: human pancreatic cancer cell line MIA PaCa-2 (KRAS mutation); experiment: Antitumor effect on MIA PaCa-2 tumor subcutaneously implanted to CB17 SCID mouse; format: in vivo; conditions: for T/C: once a day, Day 18
# Procedure: MIA PaCa-2 cell line carries KRAS mutation.
# A human pancreatic cancer line, MIA PaCa-2 (available from American Type Culture Collection), suspended in a mixture of PBS and Matrigel was subcutaneously implanted to male CB17 SCID mice at 7-10 weeks of age (Charles River UK) at 5×10^6 cells/100 μl/mouse. Tumors were measured with a pair of digital calipers, and tumor volumes (TV) were calculated by applying the formula for ellipsoid. Mice with TV of 146 to 360 mm^3 were assigned to study groups such that average TV was equal among groups.
# Oral administration of Compound 1 or its vehicle, and Compound 9 or its vehicle was started on Day 1. Compound 1 was dissolved in an acidified solution of 0.5% (w/v) hydroxypropyl methylcellulose (Sigma) and administered via oral gavage at 6 or 12 mg/kg/day. Compound 9 was suspended in 20% (v/v) PEG200 (Sigma) and 0.5% (w/v) methylcellulose (Sigma) and administered via oral gavage at 50 mg/kg/day. All treatments were given once a day for 21 consecutive days, except for the combination group receiving 12 mg/kg of Compound 1 and 50 mg/kg of Compound 9, in which the animals were treated for 5 days per week for 3 weeks.
# Antitumor effects were evaluated by comparing the median relative tumor volumes (RTV) between control- and treated groups. RTV was calculated by dividing TV on any test day by TV on Day 1, expressed as a percentage. T/C (%), as a measure of anti-tumor activity, was calculated by dividing median RTV values of each compound-administered group by median RTV of the control group receiving both vehicles.
# [3] = system: 97 cell lines harboring driver mutations in KRAS; experiment: In vitro cell line screening, 3D cultures (CellTiter-Glo 3D), KRAS panel; format: cell-based, human; conditions: sensitive = maximum inhibition greater than 50% relative to DMSO, max 3 μM Compound 1, 1 μM Compound 9, 120-hour incubation
# Procedure: The effect of Compound 1 in combination with an ERK inhibitor, Compound 9, on 97 cell lines harboring driver mutations in KRAS (G12A, G12C, G12F, G12R, G12S, G12V, G13C, G13D, A59G, Q61H, Q61K, Q61L or A146T) was assessed using the following technique. Cells from human cancer cells lines (from commercial sources such as ATCC or ECCAC) were grown as 3D cultures by seeding cells into round-bottom ultra-low attachment 96-well tissue culture plates (Corning) followed by centrifugation. Cells were allowed to recover for 16-24 hours prior to compound treatment. Compounds or dimethyl sulfoxide (DMSO) were added at various combinations of compound concentrations in a final DMSO concentration of up to 0.5% (v/v). Following a total of 120-hour incubation, CellTiter-Glo 3D Reagent(registered trademark) (Promega) was added. Plates were incubated for 10 minutes with gentle shaking at room temperature to lyse the cells, then incubated for further 40 minutes at room temperature to stabilize luminescence signal. After mixing, the mixture was transferred to a fresh plate and luminescence was determined on EnVision plate reader (Perkin Elmer).
# (§1) For both 3D and 2D assays, the combination was tested as matrix of various concentrations of Compound 1 and Compound 9. The maximum concentrations of Compound 1 and Compound 9 used were 3 μM and 1 μM, respectively. Signals were normalized to that of the average of the DMSO control wells. […] For each cell line, the maximum % inhibition values were obtained for Compound 1 alone, Compound 9 alone and the combination of both compounds. The degree of drug interaction (i.e. synergy, additivity or antagonism) was quantified for each cell line by the Bliss independence model using the Synergyfinder R package (Ref: He L. et al. (2018) Methods for High-throughput Drug Combination Screening and Synergy Scoring. In: von Stechow L. (eds) Cancer Systems Biology. Methods in Molecular Biology, vol 1711. Humana Press, New York, N.Y.). For each cell line, a single score metric, the sum of synergy and antagonism across screened drug concentrations (SUM_SYN_ANT) (Ref: Di Veroli G. Y. et al (2016) Bioinformatics 32(18):2866-2868), was calculated. Synergy was defined as a score of 21 or above.
# [4] = system: 394 cell lines that do not depend on KRAS; experiment: In vitro cell line screening, 2D monolayers (CellTiter-Glo), KRAS-independent panel; format: cell-based, human; conditions: Non-KRAS panel, sensitive = maximum inhibition greater than 50% relative to DMSO, max 3 μM Compound 1, 1 μM Compound 9, 120-hour incubation
# Procedure: (§2) Cells from human cancer cells lines (from commercial sources such as ATCC or ECCAC) were grown as 2D monolayers by seeding onto flat-bottom 96-well tissue culture plates (Corning). Cells were allowed to recover for 16-24 hours prior to compound treatment. Compounds or dimethyl sulfoxide (DMSO) were added at various combinations of compound concentrations in a final DMSO concentration of up to 0.5% (v/v). Following a total of 120-hour incubation, CellTiter-Glo reagent(registered trademark) (Promega) was added. Plates were incubated for 10 minutes with gentle shaking at room temperature to lyse the cells, then incubated for further 10 minutes at room temperature to stabilize luminescence signal. After mixing, the mixture was transferred to a fresh plate, and luminescence was determined on EnVision plate reader (Perkin Elmer).
# as §1
# 491 cell lines = experiment: In vitro cell line screening, both panels overall; format: cell-based, human; conditions: Total panel, sensitive = maximum inhibition greater than 50% relative to DMSO, max 3 μM Compound 1, 1 μM Compound 9, 120-hour incubation
# Procedure: as §2, with “as 3D cultures” for “as 2D monolayers”, “seeding cells into round-bottom ultra-low attachment” for “seeding onto flat-bottom”, “plates (Corning) followed by centrifugation.” for “plates (Corning).”, “CellTiter-Glo 3D Reagent(registered” for “CellTiter-Glo reagent(registered”, “further 40” for “further 10”, “fresh plate” for “fresh plate,”
# as §2, §1
structure (smiles),measurement,setting,value
"Cn1nc2ccc(-c3c[nH]c4nc(N5[C@H]6CC[C@@H]5[C@H](N)C6)n(C)c(=O)c34)c(Cl)c2c1Cl [Compound 1, 2-((1R,2R,4S)-2-amino-7-azabicyclo[2.2.1]heptan-7-yl)-5-(3,4-dichloro-2-methyl-2H-indazol-5-yl)-3-methyl-3,7-dihydro-4H-pyrrolo[2,3-d]pyrimidin-4-one]",T/C (%),[1],65.0%
same,tumor response,[2]; Compound 1 alone 6 mg/kg/day,transient stasis
same,T/C,[2]; Compound 1 alone 6 mg/kg/day oral,58%
same,"partial regression (tumor shrinkage of 50% or above), mice",[2]; Compound 1 alone 12 mg/kg/day,2 out of 8
same,tumor response,[2]; Compound 1 alone 12 mg/kg/day,tumor stasis
same,T/C,[2]; Compound 1 alone 12 mg/kg/day oral,33%
same,Number of cell lines sensitive,[3],38
same,Number of cell lines sensitive (% of total),[3],(39.2) %
same,Number of cell lines sensitive,[4],137
same,Number of cell lines sensitive (% of total),[4],(34.8) %
same,Number of cell lines sensitive,491 cell lines,175
same,Number of cell lines sensitive (% of total),491 cell lines,(35.6) %
